Test systems include HCC-2998 colon; SN12C renal; SF-268 CNS; COLO 205 colon; 786-0 renal; SF-295 CNS; A498 renal; MOLT-4 leukemia; UACC-257 melanoma; HS 578T breast; NCI-H226 lung.
Common to all, as to assay: inhibition of tumour cell growth, NCI panel, 48 h

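Grown in 96-well plates, cells were treated for 48 hours with each compound at five concentrations. Insufficient inhibition: endpoint recorded as highest concentration tested. Here, GI50 denotes the concentration required for 50% inhibition of growth. TGI marks complete inhibition of growth.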 A value given as a limit tells only on which side of the number the result lay.

These results are taken from PubChem BioAssay (NCI).

For `COc1cc(/C=C/c2ccc(S(N)(=O)=O)cc2)cc(OC)c1`, the TGI was 38.1 µM with HCC-2998 colon; 55.2 µM in the assay with SN12C renal; more than 100 µM in the assay with SF-268 CNS; 32.4 µM in the assay on COLO 205 colon; 50.5 µM with 786-0 renal; 55.5 µM in the assay with SF-295 CNS. Further, the TGI amounted to 39.5 µM with A498 renal; 43.9 µM in the assay on MOLT-4 leukemia; 46.8 µM with UACC-257 melanoma; 48.5 µM in the assay on HS 578T breast; 38.1 µM in the assay with NCI-H226 lung. Moreover, the GI50 in the assay on SF-268 CNS is 28.3 µM; with MOLT-4 leukemia, 18.6 µM; in the assay on HS 578T breast, 20.1 µM; in the assay with NCI-H226 lung, 12.3 µM.

Consider `O=C1C(=O)N(C23CC4CC(CC(C4)C2)C3)C(=S)N1c1ccccc1`, for which the TGI in the assay with HCC-2998 colon, in the assay with SN12C renal, in the assay with SF-268 CNS, with COLO 205 colon, with 786-0 renal and in the assay on SF-295 CNS was more than 100 µM each time. In addition, the TGI with A498 renal, in the assay on MOLT-4 leukemia, with UACC-257 melanoma, with HS 578T breast and in the assay with NCI-H226 lung was more than 100 µM each time.

With `COc1cccc(/C=N/NC(=O)CN(C)C)c1O`, the TGI with HCC-2998 colon, in the assay with SN12C renal, in the assay with SF-268 CNS, in the assay with COLO 205 colon, in the assay on 786-0 renal and in the assay with SF-295 CNS was more than 100 µM in each case. For the same compound, the TGI in the assay on A498 renal, in the assay with MOLT-4 leukemia, in the assay with UACC-257 melanoma, in the assay with HS 578T breast and in the assay with NCI-H226 lung was more than 100 µM throughout.

`NCCN(CCN)/[N+]([O-])=N/O`: the TGI in the assay with HCC-2998 colon, with SN12C renal, with SF-268 CNS, in the assay with COLO 205 colon, with 786-0 renal and in the assay on SF-295 CNS was more than 100 µM in each case. Moreover, the TGI with A498 renal, with MOLT-4 leukemia, in the assay with UACC-257 melanoma, with HS 578T breast and in the assay on NCI-H226 lung was more than 100 µM each time.

As to `O=C1c2c(F)c(F)c(F)c(F)c2SC2=Nc3cccc4cccc(c34)N12`, the TGI is 28.5 µM in the assay on HCC-2998 colon; 10.4 µM with SN12C renal; 13.7 µM with SF-268 CNS; 22.8 µM with COLO 205 colon; 16.9 µM in the assay on 786-0 renal; 30.9 µM with SF-295 CNS. The TGI in the assay with A498 renal was 35.2 µM; in the assay with MOLT-4 leukemia, 6.01 µM; in the assay on UACC-257 melanoma, 13.2 µM; in the assay on HS 578T breast it was 7.73 µM; with NCI-H226 lung it was 28.7 µM.

Regarding `O=C(NCCCc1cn[nH]c(=O)n1)c1cccc2nc3ccccc3nc12`, the TGI in the assay on HCC-2998 colon, with SN12C renal, in the assay with SF-268 CNS, in the assay with COLO 205 colon, in the assay on 786-0 renal and in the assay with SF-295 CNS was more than 100 µM throughout. The TGI in the assay with A498 renal, in the assay on MOLT-4 leukemia, with UACC-257 melanoma, in the assay on HS 578T breast and in the assay with NCI-H226 lung was more than 100 µM each time.

Turning to `Cc1cc(N)c2cc(NC(=O)Nc3ccc4nc(C)cc(N)c4c3)ccc2n1`, the TGI with HCC-2998 colon, with SN12C renal, in the assay on SF-268 CNS, with COLO 205 colon, in the assay on 786-0 renal and with SF-295 CNS was more than 100 µM throughout. Further, the TGI in the assay on A498 renal, with MOLT-4 leukemia, with UACC-257 melanoma, in the assay on HS 578T breast and with NCI-H226 lung was more than 100 µM in each case.
